# “Also recorded” adds a separate entry of the source.
# What was measured:
# PD-L1 = experiment: Western blot of PD-L1 in total cell lysates and exosomes of HeLa cells; assay type: cell-based; conditions: for 6J1-induced exosomal PD-L1 secretion: 1 μM, 24 h
# Method: PD-L1 has been previously shown to be secreted outside the cell through exosomes. HeLa cells are plated on coverslips in 24-well plates and stained with the anti-PD-L1 antibody on ice for 1 h. At the indicated times after being incubated at a warm medium at 37° C., cells are fixed and stained with antibodies against CD63 or Rab27a. […] Cells are treated with or without ionomycin (1 μM) for 48 h. The supernatant is collected and subjected to western blot analysis. […] Since the amphisome, which is formed by the fusion of the autophagosome with the MVB/late endosome, has been implicated in extracellular vesicles secretion, and PD-L1 is found to be associated with LC3B during PD-L1 trafficking (FIG. 2a), inventors examine whether the autophagosome formation is involved in exosomal PD-L1 secretion. Thus, inventors knock out the expression of Rab27A, LC3B or ATG4B in HeLa cells and collect their supernatant respectively for western blot analysis.
# Furthermore, HeLa cells are treated with or without Bafilomycin A1 (10 nM), or Torin 1 (100 nM) for 48 h. The cell lysates and supernatant are collected for western blot analysis. […] In contrast, Torin1, an autophagy activator, has little effect on total and exosomal PD-L1 levels (FIG. 2g). […] On the other hand, blockage on the fusion between lysosomes and late endosomes or autophagosomes may induce PD-L1 secretion via exosomes.
# It has previously been shown that interfering with endosomal trafficking promotes exosome secretion. Moreover, PD-L1 has been reported to be enriched in exosomes and secreted outside the cell. Thus, inventors speculate that 6J1 may induce the secretion of the PD-L1 trapped in the endosomal compartments via exosomes. To determine whether 6J1 may induce the secretion of PD-L1 via exosomes, HeLa cells are treated with or without 6J1 (1 μM) for 24 h. The supernatant is collected. Inventors purify the exosomes from the supernatant of HeLa cells by sequential centrifugation. The concentration of extracellular vesicle is determined using a Nanosight nanoparticle analyzer. And HeLa cells are treated with or without 6J1 (1 μM) for 48 h. The cell and supernatant are collected for Western Blot analysis. […] Moreover, the activity of Rab27a in HeLa cells treated with or without 6J1 (1 μM) is examined with a GST-SHD pulldown assay.
# Moreover, ATG5- or LC3-knockout HeLa cells are treated with or without 6J1 (1 μM) for 24 h. The supernatant is collected, and the concentration of the extracellular vesicle is determined using a Nanosight nanoparticle analyzer. The exosomes are also collected and subjected to western blot analysis of the EVs marker and PD-L1 in FIG. 7a. The live cells are also labeled with an anti-PD-L1 antibody in FIG. 7b and subjected to flow cytometry analysis in FIG. 7c. […] In addition, inventors assess whether other autophagy-related genes, e.g., ATG4B, ATG7, Beclin1, and Vps34 are involved in 6J1-mediated exosomal PD-L1 secretion. ATG4B-, ATG7-, Beclin1-, or VPS34-knockout HeLa cells are treated with or without 6J1 (1 μM) for 24 h. The supernatant is collected, and the concentration of extracellular vesicle is determined using a Nanosight nanoparticle analyzer. The exosomes are also collected and subjected to western blot analysis of the EVs marker and PD-L1 in FIG. 7d. The live cells are also labeled with an anti-PD-L1 antibody and subjected to flow cytometry analysis in FIG. 7e.
# 4T1 primary tumors = experiment: Chemokine levels in microenvironment of 4T1 primary tumors; assay type: in vivo, mouse; conditions: 4T1 tumors isolated at end of experiment
# Method: Inventors further measure the chemokines or cytokines in these primary tumor tissues. The tumors are isolated at the end of experiments, and the chemokine levels in the microenvironment of 4T1 primary tumors treated with the vehicle or 6J1 are determined by Flow cytometry-based quantification. In FIGS. 9a-9c, data are reported in μg/ml, standardized to the excised tumor weight (in grams); each dot represents one mouse.
# PD-L1-knockout 4T1 cells = experiment: PD-L1-knockout 4T1 tumors in Balb/c mice; assay type: in vivo, mouse; conditions: 30 mg/kg, daily, oral gavage
# Method: To assess whether the in vivo antitumor growth effect of 6J1 is related to its effect on PD-L1 in 4T1 cells, inventors knock out PD-L1 via CRISPR/Cas9 in 4T1 cells (FIG. 10a). 4T1-NC or 4T1-PD-L1 knockout cells are treated with or without 6J1 (1 μM) for 24 h. The supernatant is collected, and the concentration of extracellular vesicle is determined using a Nanosight nanoparticle analyzer. The exosomes are also collected and subjected to western blot analysis of the EVs marker and PD-L1. […] Inventors then transplant control or PD-L1-knockout 4T1 cells into the fat pad of syngeneic female Balb/c mice. The mice are randomly divided (n=5 per group) and treated with either buffer or 6J1 (30 mg/kg, daily) via oral gavage.
# B16-F10 cells = experiment: B16-F10 melanoma model in C57BL/6J mice; assay type: in vivo, mouse; conditions: 30 mg/kg, daily, oral gavage, 4 weeks
# Method: Inventors also examine the anti-cancer effect of 6J1 in a melanoma xenograft mouse model, by the subcutaneous injection of B16-F10 cells in syngeneic C57BL mice. B16-F10 cells are subcutaneously injected into the flank of female C57BL/6J mice. The mice are randomly divided (n=6 per group). They are treated with either buffer or 6J1 (30 mg/kg, daily, oral gavage) after tumors reach around 5 mm for 4 weeks. After 4 weeks, the primary tumors are collected for analysis. […] In addition, a flow cytometry-based quantification of the levels of plasma membrane PD-L1 in the primary tumor is performed in FIG. 15e. […] In B16-F10 tumors, fold change of CD3+CD8+ T-cell populations, and percentage of intracellular IFN-γ in the isolated tumor-infiltrating lymphocytes (TILs) are determined by flow cytometry analysis in FIGS. 15f and 15g.
# [1] = Oral bioavailability (stated, no method); conditions: in vivo
compound,measurement,setting,value
OCCOCCN(c1ccccc1)c1nc(N/N=C/c2cccc(I)c2)nc(N2CCOCC2)n1 [Compound 6J1],6J1-induced exosomal PD-L1 secretion,"PD-L1; ATG4B-, ATG7-, Beclin1- or VPS34-knockout HeLa cells",fails to abolish
same,6J1-induced exosomal PD-L1 secretion,PD-L1; ATG5- or LC3B-knockout HeLa cells,Neither ATG5 nor LC3B knockout impairs
same,exosomal PD-L1 level,"PD-L1; HeLa cells, 48 h, ionomycin 1 μM, Bafilomycin A1 10 nM, Torin 1 100 nM, 6J1 1 μM",increases PD-L1 level in exosomes
same,"secretion of chemokines CCL2, CCL3, CCL4, CXCL9 in tumor microenvironment",4T1 primary tumors,significantly increases the secretion of some chemokines
same,"secretion of chemokines CCL5, CCL11, CCL17, CCL22, CXCL1, CXCL5, CXCL10, CXCL13 in tumor microenvironment",4T1 primary tumors,little or only subtle effects on others; also recorded: little or only subtly effects on others
same,tumor growth in mice implanted with PD-L1-knockout 4T1 cells,PD-L1-knockout 4T1 cells,fails to decrease further tumor growth
same,animal's body weight,B16-F10 cells,without affecting the animal's body weight
same,expression of IFN-γ in tumor-infiltrating lymphocytes,B16-F10 cells,only subtly increases the expression of IFN-γ
same,growth of B16-F10 tumors,B16-F10 cells,markedly inhibits the growth of B16-F10 tumors
same,levels of PD-L1 at the cell surface of the primary tumors,B16-F10 cells,significantly decreases the levels of PD-L1 at the cell surface of the primary tumors
same,percentage of tumor-infiltrating CD8+ T cell populations,B16-F10 cells,markedly increases the percentage of tumor-infiltrating CD8+ T cell populations
same,oral bioavailability,[1],good oral bioavailability

# — US11986482B2, “Method of promoting antitumor or anti-cancer immunity” (City University of Hong Kong, priority 2021, dated 2024)
